From US12371454B2, “Cyclic peptide compound having Kras inhibitory action” (priority 2019, dated 2025)
Positions of bridges follow the written chain, without caps; N, C: chain ends. Non-standard residues stand in square brackets, D forms with d. Residues, ends and D or L forms follow the SMILES beside them. *: point of attachment. hPhe(3-Cl-4-CF3) = N[C@@H](CCc1ccc(C(F)(F)F)c(Cl)c1)C(=O)O; NMeDab(N,N-(CH2CF2CH2)) = CN[C@@H](CCN1CC(F)(F)C1)C(=O)O; hPhe(4-CF3) = N[C@@H](CCc1ccc(C(F)(F)F)cc1)C(=O)O; Pro(cis-4-Ph) = O=C(O)[C@@H]1C[C@H](c2ccccc2)CN1; NMePhe(4-Cl) = CN[C@@H](Cc1ccc(Cl)cc1)C(=O)O; NMePhe(4-Me) = CN[C@@H](Cc1ccc(C)cc1)C(=O)O; NMeMet(O2) = CN[C@@H](CCS(C)(=O)=O)C(=O)O; Abu(4,4,4-F3) = N[C@@H](CC(F)(F)F)C(=O)O; hNle(7,7-F2) = N[C@@H](CCCCC(F)F)C(=O)O; NMeGly(cPent) = CN[C@H](C(=O)O)C1CCCC1; Phe(2-OMe) = COc1ccccc1C[C@H](N)C(=O)O; Phe(3-I) = N[C@@H](Cc1cccc(I)c1)C(=O)O; Pip(4-oxo) = O=C1CCN[C@H](C(=O)O)C1; NMeCha = CN[C@@H](CC1CCCCC1)C(=O)O; Azetidine(3,3-F2) = FC1(F)CN(*)C1; NMeChg = CN[C@H](C(=O)O)C1CCCCC1; NMeF = CN[C@@H](Cc1ccccc1)C(=O)O; NMeT = CN[C@H](C(=O)O)[C@@H](C)O; NMeD = CN[C@@H](CC(=O)O)C(=O)O; NMeL = CN[C@@H](CC(C)C)C(=O)O; NMeV = CN[C@H](C(=O)O)C(C)C; d(β3hA) = C[C@@H](N)CC(=O)O; Pip = O=C(O)[C@@H]1CCCCN1; NMeA = CN[C@@H](C)C(=O)O; NMeAib = CNC(C)(C)C(=O)O; Piperidide = C1CCN(*)CC1; Pyrrolidide = C1CCN(*)C1; dNMeA = CN[C@H](C)C(=O)O; Ac5c = NC1(C(=O)O)CCCC1; Aze = O=C(O)[C@@H]1CCN1; Sar = CNCC(=O)O

Biological target: T1, Kras and SOS1 (biotin-tagged human Kras loaded with GDP, His-tagged human SOS1) (Homo sapiens, UniProt P01116, G12D)
T1 construct: made in house; host or cells: E. coli (stated for Kras only)
T1 sequence (P01116 1-188 isoform P01116-2 G12D): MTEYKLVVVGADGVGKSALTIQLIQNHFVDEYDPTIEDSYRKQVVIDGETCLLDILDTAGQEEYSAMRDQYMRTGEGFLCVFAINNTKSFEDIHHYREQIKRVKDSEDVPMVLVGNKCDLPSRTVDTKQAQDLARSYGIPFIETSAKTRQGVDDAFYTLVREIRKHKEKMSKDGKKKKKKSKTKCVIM
Assay: Protein-protein interaction inhibition between Kras and SOS1 (KrasGl2D-SOS PPI) using AlphaScreen
Type: binding
Details: AlphaScreen; biotin-tagged human Kras loaded with GDP, His-tagged human SOS1; read-out: KRAS G12D-SOS PPI IC50
Outline: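 Energy transfer from nickel-chelate donor beads bound to His-SOS1 to streptavidin acceptor beads bound to biotin-Kras, expressed in E. coli and loaded with GDP after purification, was monitored. Donors were excited at 680 nm; singlet oxygen reaching acceptors gave emission read at 520-620 nm.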

SMILES | IC50 [nM]
CC[C@H](C)[C@@H]1NC(=O)[C@H](CC(C)C)N(C)C(=O)C[C@@H](C(=O)N2CCCCC2)N(C)C(=O)[C@H](C2CCCCC2)N(C)C(=O)C2(CCCC2)NC(=O)[C@@H]2CC(=O)CCN2C(=O)[C@H](CCc2ccc(C(F)(F)F)c(Cl)c2)NC(=O)CN(C)C(=O)[C@H](CC2CCCCC2)N(C)C(=O)CN(C)C(=O)CN(C)C1=O [Compound 1089] ([NMeL]I[Sar][Sar][NMeCha][Sar][hPhe(3-Cl-4-CF3)][Pip(4-oxo)][Ac5c][NMeChg][NMeD]-Piperidide; lactam N-11) | 1.6
CC[C@H](C)[C@@H]1NC(=O)[C@H](C)N(C)C(=O)C[C@@H](C)NC(=O)[C@H](CC(C)C)N(C)C(=O)C2(CCCC2)NC(=O)[C@@H]2CCCN2C(=O)[C@H](CCc2ccc(C(F)(F)F)cc2)NC(=O)CN(C)C(=O)[C@H](CC2CCCCC2)N(C)C(=O)CN(C)C(=O)CN(C)C1=O [Compound 1090] (cyclo([Ac5c][NMeL][d(β3hA)][NMeA]I[Sar][Sar][NMeCha][Sar][hPhe(4-CF3)]P)) | 88
CC[C@H](C)[C@@H]1NC(=O)[C@H](C)N(C)C(=O)C[C@@H](C(=O)N2CCCC2)NC(=O)[C@H](CC(C)C)N(C)C(=O)[C@H](Cc2ccccc2)N(C)C(=O)[C@H](CCCCC(F)F)NC(=O)[C@H](CCc2ccc(C(F)(F)F)cc2)NC(=O)CN(C)C(=O)[C@H](Cc2ccc(Cl)cc2)N(C)C(=O)CN(C)C(=O)CN(C)C1=O [Compound 1092] ([NMeA]I[Sar][Sar][NMePhe(4-Cl)][Sar][hPhe(4-CF3)][hNle(7,7-F2)][NMeF][NMeL]D-Pyrrolidide; lactam N-11) | 41
CC[C@H](C)[C@@H]1NC(=O)[C@H](CC(C)C)N(C)C(=O)C[C@@H](C(=O)N2CCCCC2)N(C)C(=O)[C@H](C2CCCCC2)N(C)C(=O)C2(CCCC2)NC(=O)[C@@H]2CCCN2C(=O)[C@H](CCc2ccc(C(F)(F)F)c(Cl)c2)NC(=O)CN(C)C(=O)[C@H](CCS(C)(=O)=O)N(C)C(=O)CN(C)C(=O)CN(C)C1=O [Compound 1094] ([NMeL]I[Sar][Sar][NMeMet(O2)][Sar][hPhe(3-Cl-4-CF3)]P[Ac5c][NMeChg][NMeD]-Piperidide; lactam N-11) | 2.2
CC[C@H](C)[C@@H]1NC(=O)[C@H](CC(C)C)N(C)C(=O)C[C@@H](C(=O)N2CCCCC2)N(C)C(=O)[C@H](C2CCCCC2)N(C)C(=O)C2(CCCC2)NC(=O)[C@@H]2C[C@H](c3ccccc3)CN2C(=O)[C@H](CCc2ccc(C(F)(F)F)c(Cl)c2)NC(=O)CN(C)C(=O)[C@H](CC2CCCCC2)N(C)C(=O)[C@@H]2CCCN2C(=O)CN(C)C1=O [Compound 1096] ([NMeL]I[Sar]P[NMeCha][Sar][hPhe(3-Cl-4-CF3)][Pro(cis-4-Ph)][Ac5c][NMeChg][NMeD]-Piperidide; lactam N-11) | 2.6
CC[C@H](C)[C@@H]1NC(=O)[C@@H]2CCCCN2C(=O)C[C@@H](C)NC(=O)[C@H](CC(C)C)N(C)C(=O)C2(CCCC2)NC(=O)[C@@H]2CCCN2C(=O)[C@H](CCc2ccc(C(F)(F)F)cc2)NC(=O)CN(C)C(=O)[C@H](CC2CCCCC2)N(C)C(=O)CN(C)C(=O)CN(C)C1=O [Compound 1097] (cyclo([Ac5c][NMeL][d(β3hA)][Pip]I[Sar][Sar][NMeCha][Sar][hPhe(4-CF3)]P)) | 230
CC[C@H](C)[C@@H]1NC(=O)[C@H](CC(C)C)N(C)C(=O)C[C@@H](C(=O)N2CCCCC2)N(C)C(=O)[C@H](CC(C)C)NC(=O)C(C)(C)N(C)C(=O)[C@H](Cc2ccccc2OC)NC(=O)[C@H](Cc2cccc(I)c2)NC(=O)CN(C)C(=O)[C@H](Cc2ccc(C)cc2)N(C)C(=O)CN(C)C(=O)CN(C)C1=O [Compound 1100] ([NMeL]I[Sar][Sar][NMePhe(4-Me)][Sar][Phe(3-I)][Phe(2-OMe)][NMeAib]L[NMeD]-Piperidide; lactam N-11) | 6.3
CC[C@H](C)[C@@H]1NC(=O)[C@H](CC(C)C)N(C)C(=O)C[C@@H](C(=O)N2CCCCC2)N(C)C(=O)[C@H]([C@@H](C)OC)N(C)C(=O)C2(CCCC2)NC(=O)[C@@H]2CCCN2C(=O)[C@H](CCc2ccc(C(F)(F)F)c(Cl)c2)NC(=O)CN(C)C(=O)[C@H](CC2CCCCC2)N(C)C(=O)CN(C)C(=O)CN(C)C1=O [Compound 1101] ([NMeL]I[Sar][Sar][NMeCha][Sar][hPhe(3-Cl-4-CF3)]P[Ac5c][NMeT](Me)[NMeD]-Piperidide; lactam N-11) | 9
CC[C@H](C)[C@@H]1NC(=O)[C@H](C)N(C)C(=O)C[C@@H](C(=O)N2CCCCC2)N(C)C(=O)[C@H](C(C)C)N(C)C(=O)C2(CCCC2)NC(=O)[C@@H]2CCCN2C(=O)[C@H](CCc2ccc(C(F)(F)F)c(Cl)c2)NC(=O)[C@@H](C)N(C)C(=O)[C@H](CC2CCCCC2)N(C)C(=O)[C@@H]2CCN2C(=O)[C@H](C)N(C)C1=O [Compound 1103] ([NMeA]I[NMeA][Aze][NMeCha][dNMeA][hPhe(3-Cl-4-CF3)]P[Ac5c][NMeV][NMeD]-Piperidide; lactam N-11) | 16
CC[C@H](C)[C@@H]1NC(=O)[C@H](C)N(C)C(=O)C[C@@H](C(=O)N2CCCCC2)N(C)C(=O)[C@H](C(C)C)N(C)C(=O)[C@H](CC(F)(F)F)NC(=O)[C@H](CCN2CC(F)(F)C2)N(C)C(=O)[C@H](CCc2ccc(C(F)(F)F)c(Cl)c2)NC(=O)CN(C)C(=O)[C@H](CC2CCCCC2)N(C)C(=O)CN(C)C(=O)CN(C)C1=O [Compound 1104] ([NMeA]I[Sar][Sar][NMeCha][Sar][hPhe(3-Cl-4-CF3)][NMeDab(N,N-(CH2CF2CH2))][Abu(4,4,4-F3)][NMeV][NMeD]-Piperidide; lactam N-11) | 11
CC[C@H](C)[C@@H]1NC(=O)[C@H](CC(C)C)N(C)C(=O)C[C@@H](C(=O)N2CCCCC2)N(C)C(=O)[C@H](C(C)C)NC(=O)C2(CCCC2)NC(=O)[C@@H]2CCCN2C(=O)[C@H](CCc2ccc(C(F)(F)F)c(Cl)c2)NC(=O)CN(C)C(=O)[C@H](CC2CCCCC2)N(C)C(=O)[C@@H]2CCN2C(=O)[C@H](C)N(C)C1=O [Compound 1106] ([NMeL]I[NMeA][Aze][NMeCha][Sar][hPhe(3-Cl-4-CF3)]P[Ac5c]V[NMeD]-Piperidide; lactam N-11) | 35
CC[C@H](C)[C@@H]1NC(=O)[C@H](CC(C)C)N(C)C(=O)C[C@@H](C(=O)N(C)C)N(C)C(=O)[C@H](C2CCCC2)N(C)C(=O)[C@H](COC)NC(=O)[C@H](CC(=O)N2CC(F)(F)C2)N(C)C(=O)[C@H](CCc2ccc(C(F)(F)F)c(Cl)c2)NC(=O)CN(C)C(=O)[C@H](CC2CCCCC2)N(C)C(=O)[C@@H]2CCN2C(=O)[C@H](C)N(C)C1=O [Compound 1108] ([NMeL]I[NMeA][Aze][NMeCha][Sar][hPhe(3-Cl-4-CF3)][NMeD](Azetidine(3,3-F2))S(Me)[NMeGly(cPent)][NMeD]-NMe2; lactam N-11) | 11
CC[C@H](C)[C@@H]1NC(=O)[C@@H]2CCCCN2C(=O)C[C@@H](C)NC(=O)[C@H](C(C)C)N(C)C(=O)[C@H](Cc2ccccc2)N(C)C(=O)[C@H](CC(C)C)N(C)C(=O)[C@H](CCc2ccc(C(F)(F)F)cc2)NC(=O)CN(C)C(=O)[C@H](Cc2ccc(Cl)cc2)N(C)C(=O)CN(C)C(=O)CN(C)C1=O [Compound 1110] (cyclo(I[Sar][Sar][NMePhe(4-Cl)][Sar][hPhe(4-CF3)][NMeL][NMeF][NMeV][d(β3hA)][Pip])) | 130
